From patent US12201679B2, “Epitope-targeted peptide immunostimulants” (priority 2019, dated 2025)
“Also recorded” adds a separate entry of the source. Bridge positions count the residues as written; N and C are the ends. Square brackets hold non-standard residues; d marks the D form. Triazole bridges read from a SMILES are 1,4-linked. Ends that are not written are not given here. Peptide text beside a SMILES is read from it. Lys(N3) = [N-]=[N+]=NCCCC[C@H](N)C(=O)O; Pra = C#CC[C@H](N)C(=O)O

Assays:
[1] = tested on: live MRSA cells or heat-killed MRSA cells; test: ELISA, PCC-driven SAv-HRP recruitment to MRSA cells; type: cell-based, Staphylococcus aureus; settings: biotinylated PCC, with or without 0.4 micrograms/mL tunicamycin
Description: FIG. 16A-16B are graphs showing PCC-driven recruitment of streptavidin-horseradish peroxidase (SAv-HRP) conjugate to live MRSA cells (FIG. 16A) or heat-killed MRSA cells (FIG. 16B) cultured under different antibiotic conditions via enzyme-linked Immunosorbent Assays (ELISAs). All tests were conducted by coating the antigen (MRSA cells) onto the wells of 96-well plates and then exposing the wells solutions containing biotinylated PCCs, then SAv-HRP, then HRP substrate followed by detection via absorbance at 450 nm. Absorbance values greater than the “no PCC” background indicate that several PCCs recruit SAv-HRP to either live cells (FIG. 16A) or heat-killed cells (FIG. 16B) cultured either without antibiotic (“−tunicamycin”, blue bars) or with 0.4 micrograms/mL of tunicamycin (“+tunicamycin”, red), which reduces the expression of wall teichoic aids by MRSA. All measurements were conducted in triplicate and error bars reflect standard deviations. The PCC sequences are, from left to right in both graphs, SEQ ID NOs: 6, 23, 34, and 29.
The recruitment ability of selected PCCs was assessed by PCC-driven recruitment of streptavidin-horseradish peroxidase (SAv-HRP) conjugate to live MRSA cells (FIG. 16A) or heat-killed MRSA cells (FIG. 16B) cultured under different antibiotic conditions via enzyme-linked Immunosorbent Assays (ELISAs). […]

[2] = tested on: K. pneumoniae (strains BAA 1705 & 2146); test: Whole-cell ELISA, biotinylated PCC, multidrug-resistant K. pneumoniae; type: cell-based, Klebsiella pneumoniae; settings: for whole-cell ELISA binding at high PCC concentration: strain BAA 1705, 50 μM PCC, LB or G-CAA; for whole-cell ELISA 450 nm absorbance, cells cultured in G-CAA (high MrkA) / whole-cell ELISA 450 nm absorbance, cells cultured in LB (low MrkA): strain BAA 1705, PCC 5 μM to 5 nM
Description: Detection of the binding of biotinylated PCCs to bacterial surface was performed as follows. 10^8 bacteria from a culture grown overnight were used for each test. […] After washing thrice with PBS to remove unbound PCCs, bacteria were incubated with Streptavidin-HRP (1:1000) for 1 h at 37° C. Bacteria were washed thoroughly and the TMB reagent was added until visible coloration was observed. The reaction was quenched using 2N H2SO4 and absorbance was measured at 450 nm.

[3] = tested on: wild type KPPR1 (ATCC 43816) cells; test: Whole-cell ELISA, biotinylated PCC, wild type KPPR1; type: cell-based, Klebsiella pneumoniae; settings: biotinylated PCC 5 μM down to 5 nM, G-CAA media
Description: In this assay, bacteria are exposed to biotinylated PCC ligands, then SAv-horseradish peroxidase (SAv-HRP), and then developed to produce a colorometric signal that correlates with SAv-HRP binding.
Whole-cell ELISA assays were conducted on the wild type version of the clinically-relevant strain of K. pneumoniae, KPPR1 (ATCC 43816). Wild type KPPR1 cells were cultured in G-CAA media to promote fimbrial expression (54), and MrkA expression in KPPR1 was confirmed by a western blot (FIG. 5B inset, full blot in FIG. 9).
(§1) Detection of the binding of biotinylated PCCs to bacterial surface was performed as follows. 10^8 bacteria from a culture grown overnight were used for each test. Bacteria were incubated with PBS containing 1% BSA (PBS-BSA) for 1 h at 37° C., washed once with PBS, and then incubated with 5 μM of the biotinylated PCC in PBS-BSA for 1 h at 37° C. After washing thrice with PBS to remove unbound PCCs, bacteria were incubated with Streptavidin-HRP (1:1000) for 1 h at 37° C. Bacteria were washed thoroughly and the TMB reagent was added until visible coloration was observed. The reaction was quenched using 2N H2SO4 and absorbance was measured at 450 nm.

[4] = tested on: MrkA-knockout KPPR1 cells; test: Whole-cell ELISA, biotinylated PCC, MrkA-knockout KPPR1; type: cell-based, Klebsiella pneumoniae
Description: ELISA signals were only observed for K. pneumoniae cells (strain BAA 1705) cultured in G-CAA (FIG. 11A), when treated with PCCs at concentrations of 5 μM or lower.
as §1

[5] = tested on: K. pneumoniae cells (strain BAA 1705); test: Gentamicin protection assay: phagocytosis and opsonophagocytic killing (OPK) by macrophages; type: cell-based, Klebsiella pneumoniae
Description: It also tested whether DNP-conjugated EPIs could promote the opsonophagocytic killing (OPK) of K. pneumoniae by macrophages. This was tested by using an OPK assay. Briefly, K. pneumoniae cells were treated with EPI and then anti-DNP antibody before being exposed to macrophages for either 6 or 24 hours. During this incubation period, macrophages that recognize K. pneumoniae cells will phagocytose them, and phagocytosed bacteria will remain viable for up to 6 hours, but within 24 hours are rendered inviable by OPK. Thus, macrophages were isolated after 6 and 24 hours of incubation with K. pneumoniae, lysed them, and plated and grew the lysate, which yielded bacterial colonies that reflect the phagocytosis (at 6 hrs) or OPK (at 24 hrs) of bacteria.
Given that cy(LLFFF)-DNP (SEQ ID NO:5) recruits antibodies to K. pneumoniae surfaces, it was expected that K. pneumoniae opsonized in this manner would be more susceptible to phagocytosis by macrophages. AR-PCC-driven phagocytosis and OPK were quantified by a gentamicin protection assay, as depicted in FIG. 7A. For this assay, K. pneumoniae cells (strain BAA 1705) were treated with cy(LLFFF)-DNP (SEQ ID NO:5), opsonized by anti-DNP antibodies, and then incubated with murine bone-marrow-derived macrophages (BMDMs). BMDMs were subsequently exposed to a solution containing gentamicin, to which K. pneumoniae strain BAA 1705 is susceptible, to kill any extracellular bacteria. Phagocytosed bacteria remain viable inside BMDMs for at least 1 h, yet are rendered inviable after 24 h by OPK (FIG. 13). Macrophages harvested at 1 h and 24 h were lysed and plated to generate bacterial colonies, which were enumerated to quantify phagocytosis and OPK.
Klebsiella pneumoniae BAA1705 was treated with DNP-PCCs followed by incubation with anti-DNP antibody, as described above in the “Cell-Based ELISAs” section. These opsonized bacteria were then used to infect BMDMs at a multiplicity of infection of 50 for 0.5 h at 37° C. Bacteria were then washed by using RPMI 1640 Media and BMDMs were left in cell culture medium containing gentamicin (100 μg/ml). After 1 h and 24 h BMDMs were washed to remove gentamicin and intracellular bacteria were harvested by lysing BMDMs in RPMI media containing 0.2% Triton X 100. Bacterial CFUs were enumerated by plating onto LB agar. Bacterial counts at 1 h indicated the degree of opsonization while those at 24 h served as a measure of microbicidal activity of macrophages. For these measurements, anti-MrkA antibody and K. pneumoniae antiserum were used at dilutions of 5 μg/mL each.

Salmonella typhimurium = test: Whole-cell ELISA, biotinylated PCC, S. typhimurium; type: cell-based; settings: biotinylated PCC at 5 μM, FIG. 5C
Description: (§2) Whole-cell ELISA data in FIG. 5C show strong signal from the two strains of K. pneumoniae (BAA 1705 and BAA 2146) but only weak signals from Escherichia coli (E. coli) or Salmonella typhimurium (S. typhimurium) cells. […] In these tests, droplets of phosphate buffered solution containing live bacteria or heat-killed bacteria and various concentrations of (NH4)2SO4 at 10 m or 30 m following mixing were imaged. Aggregation in each droplet was assessed by visual inspection and scored as indicating non-aggregated, low levels of aggregation, or extensive aggregation. All droplets were on a single glass slide and image acquisition of all droplets took less than a minute for each 10 m and 30 m time point.
as §1

[6] = tested on: K. pneumoniae cells, BAA 1705 and BAA 2146; test: Whole-cell ELISA, anti-DNP recruitment to bacterial cell surfaces; type: cell-based, Klebsiella pneumoniae; settings: cy(LLFFF)-DNP 5 or 10 μM; dummy cy(HNGPT)-DNP 50 and 100 μM; plus anti-DNP
Description: FIG. 12 is a plot of 450 nm absorbances obtained from a cell-based ELISA assay conducted on two strains of K. pneumoniae cells, BAA 1705 (black) and BAA 2146 (orange), that were either untreated or opsonized by EPIs (AR-PCCs) and/or antibodies. […] This establishes EPI-driven opsonization by cy(LLFFF)-DNP (SEQ ID NO:5).
The protocol for detecting anti-DNP recruitment to bacterial cell surfaces is as follows. Bacteria were incubated with the desired concentration of DNP-conjugated PCCs in PBS-BSA for 1 h at 37° C. Residual PCCs were washed off by using PBS-BSA and bacteria were incubated with anti-DNP antibody (1:1000) for 1 h at 37° C. After washing, bacteria were incubated with HRP conjugated secondary antibody (Bio-Rad) at a dilution of 1:10,000 for 1 h at 37° C. Unbound antibody was washed off by using PBS-BSA and the cells were then developed by using TMB reagent. The reaction was quenched using 2N H2SO4 and absorbance was measured at 450 nm. Anti-MrkA antibody was procured from Biorbyt (orb51318) and used at a concentration of 5 μg/mL, and K. pneumoniae antiserum was obtained from abcam (ab20947) and used at a concentration of 5 μg/mL.

[7] = target: full-length recombinant MrkA protein (Klebsiella pneumoniae, UniProt P12267); type: binding; settings: sandwich ELISA, alanine scan and analogues
Excerpt: HPraGly is present before X1 in each peptide and Az4 follows X5 in each peptide.

Escherichia coli = test: Whole-cell ELISA, biotinylated PCC, E. coli; type: cell-based; settings: biotinylated PCC at 5 μM, FIG. 5C
Description: as §2, §1

SynEp 1 = SynEp 1 (Klebsiella pneumoniae, UniProt P12267, V41X); test: Epitope selectivity sandwich ELISA, immobilized SynEp 1; settings: DNP-conjugated ligand at 500 nM, background biotin-PEG6
[8] = tested on: K. pneumoniae cells (strain BAA 2146); test: Flow cytometry, recruitment of fluorescent anti-DNP antibodies; type: cell-based, Klebsiella pneumoniae; settings: 50 μM AR-PCC plus Alexafluor 488 anti-DNP

Compound	SAv-HRP recruitment to MRSA cells [1]	whole-cell ELISA binding at high PCC concentration [2]	whole-cell ELISA 450 nm absorbance, cells cultured in G-CAA (high MrkA) [2]	whole-cell ELISA 450 nm absorbance, cells cultured in LB (low MrkA) [2]	whole-cell ELISA signal, wild type KPPR1 [3]	whole-cell ELISA signal, MrkA-knockout KPPR1 [4]	whole-cell ELISA signal, S. typhimurium (Salmonella typhimurium)	450 nm absorbance, anti-DNP opsonization of K. pneumoniae [6]	whole-cell ELISA signal, E. coli (Escherichia coli)	also measured
cy(kpdew) ([dK][dP][dD][dE][dW]; not fully specified (bridges); printed as cy(kpdew); also: cyclic, closure not given here)	Standout recruiting peptides									
cy(akkrp) ([dA][dK][dK][dR][dP]; not fully specified (bridges); printed as cy(akkrp); also: cyclic, closure not given here)	Standout recruiting peptides									
CC(C)C[C@@H]1NC(=O)[C@H](CC(C)C)NC(=O)[C@@H](N)Cc2cn(nn2)CCCC[C@@H](C(=O)O)NC(=O)[C@H](Cc2ccccc2)NC(=O)[C@H](Cc2ccccc2)NC(=O)[C@H](Cc2ccccc2)NC1=O [cy(LLFFF)] (H-[Pra]LLFFF[Lys(N3)]-OH; triazole 1-7)		bound K. pneumoniae cells regardless of MrkA-expression level; also recorded: strong and comparable ELISA signals	strong absorbances	near-baseline absorbances	strong signals; also recorded: binds wild type MrkA-expressing KPPR1 cells	comparable to baseline; also recorded: but not MrkA-knockout KPPR1	small absorbances; also recorded: weak signals	much larger signal	small absorbances; also recorded: weak signals	binding selectivity towards MrkA-expressing K. pneumoniae cells versus E. coli and S. typhimurium ([2]; whole-cell ELISA, FIG. 5C): excellent binding selectivity; CFU, DNP-conjugated EPI plus anti-DNP, macrophages harvested at 6 hrs ([5]; 6 hrs): more than 80,000 CFU; cell counts, DNP-conjugated EPI only (no antibody), macrophages harvested at 6 hrs ([5]; 6 hrs): ~35,000; cell counts at 24 h (OPK) ([5]; 24 h of incubation): little to no cell counts; binding to full-length MrkA compared to cy(LLFFF) [7]: highest affinity; ELISA signal on SynEp 1 (SynEp 1): Negative signals
cy(HNGPT)-DNP (cyclo(HNGPT); also: DNP label) [reference compound]								Much smaller signals		fluorescence intensity of cells (predominantly) [8]: < 1.0×10^1 intensity
cy(LLFFA) (cyclic)		bound K. pneumoniae cells regardless of MrkA-expression level; also recorded: strong and comparable ELISA signals	near-baseline absorbances	near-baseline absorbances	much lower intensities; also recorded: Much lower binding	comparable to baseline; also recorded: Much lower binding	low signals		low signals	whole-cell ELISA signal, K. pneumoniae BAA 1705 and BAA 2146 ([2]; biotinylated PCC at 5 μM, FIG. 5C): low signals; also recorded: no or minimal binding above baseline; colony counts at 1 h, EPI plus anti-DNP antibody ([5]; 5 μM AR-PCC, murine BMDMs, 1 h): 85,000 CFU
